# Reference: US4870085A, “Tryptamine derivatives active on central nervous system” (Bayer Aktiengesellschaft, priority 1984, dated 1989)
# Structures can show the parent of a compound that is named as a salt.
# What was measured:
# 5-HT1 receptor = experiment: Interaction with serotonin receptors: 5-HT1 receptor, calf hippocampus, ligand 3H-serotonin; assay type: binding; settings: ligand 3H-serotonin (Table 2), read-out: K1
# Method: (§1) Interaction with serotonin receptors
# (§2) Inhibition constant K1 (nmol l^-1)
# Ligand: ^3 H--serotonin
# In generally similar manner there were prepared additional compounds which, when tested against 5-HT, receptors as in Example 7, gave the results shown in Table 2.
# 5-HT2 receptor = biological target: T1, 5-HT2 receptor (Rattus norvegicus, UniProt P14842); experiment: Interaction with serotonin receptors: 5-HT2 receptor, rat prefrontal cortex, ligand 3H-ketanserin; assay type: binding
# T1 construct: rat prefrontal cortex; from tissue; host or cells: rat prefrontal cortex
# T1 sequence (P14842 whole entry): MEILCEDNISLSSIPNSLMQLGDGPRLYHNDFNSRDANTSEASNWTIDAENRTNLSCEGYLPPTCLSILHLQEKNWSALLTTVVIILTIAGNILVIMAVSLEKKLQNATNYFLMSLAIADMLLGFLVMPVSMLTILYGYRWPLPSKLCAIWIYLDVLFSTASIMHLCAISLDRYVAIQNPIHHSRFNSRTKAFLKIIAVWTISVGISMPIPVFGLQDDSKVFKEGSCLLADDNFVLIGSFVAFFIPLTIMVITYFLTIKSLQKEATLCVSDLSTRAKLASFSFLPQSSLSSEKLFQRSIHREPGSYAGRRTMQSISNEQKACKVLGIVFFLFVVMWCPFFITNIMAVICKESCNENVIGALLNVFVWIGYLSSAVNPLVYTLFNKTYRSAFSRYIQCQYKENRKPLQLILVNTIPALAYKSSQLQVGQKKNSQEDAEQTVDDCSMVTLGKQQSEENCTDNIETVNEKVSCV
# From the text: as §1, §2
# 5-HT2 receptor Contraction of the
# Ligand: ^3 H--ketanserin
Structure (SMILES),Ki (5-HT1 receptor),Ki (5-HT2 receptor)
C[C@H]1CCC[C@H](C)N1CCc1c[nH]c2ccc(OCc3ccccc3)cc12 (relative stereo) [compound 15],500 nM,–
C[C@H]1CCC[C@H](C)N1CCc1c[nH]c2ccc(O)cc12 (relative stereo) [compound 17],25 nM,–
COc1ccc2[nH]cc(CCN3[C@@H](C)CCC[C@@H]3C)c2c1 (relative stereo) [compound 20],450 nM,–
COc1ccc2[nH]cc(CCN3[C@@H](C)CCC[C@@H]3C)c2c1 (relative stereo) [compound 22],45 nM,–
C[C@H]1CCC[C@H](C)N1CCc1c[nH]c2ccccc12 (relative stereo) [compound 29],3000 nM,–
"C[C@@H]1CCC[C@H](C)N1CCc1c[nH]c2ccccc12 [Example 2, 3-[2-(Cis-2,6-dimethylpiperidinyl)ethyl]indole hydrochloride]",–,2500 nM
"C[C@@H]1CCC[C@H](C)N1CCc1c[nH]c2ccc(Br)cc12 [Example 3, 3-[2-(Cis-2,6-dimethylpiperidinyl)ethyl]-5-bromoindole hydrochloride]",–,1300 nM
COc1ccc2[nH]cc(CCN3[C@H](C)CCC[C@@H]3C)c2c1 [compound 9],13 nM,–
COc1ccc2[nH]cc(CCN3[C@H](C)CCC[C@@H]3C)c2c1 [compound 10],10 nM,–
C[C@@H]1CCC[C@H](C)N1CCc1c[nH]c2ccc(OCc3ccccc3)cc12 [compound 11],200 nM,–
C[C@@H]1CCC[C@H](C)N1CCc1c[nH]c2ccc(O)cc12 [compound 12],15 nM,–
C[C@@H]1CCC[C@H](C)N1CCc1cn(C(N)=O)c2ccccc12 [compound 13],1800 nM,–
C[C@@H]1CCC[C@H](C)N1CCc1c[nH]c2ccc(OCc3ccccc3)cc12 [compound 14],800 nM,–
C[C@@H]1CCC[C@H](C)N1CCc1c[nH]c2ccc(O)cc12 [compound 16],4 nM,–
C[C@@H]1CCC[C@H](C)N1CCc1c[nH]c2ccc(Br)cc12 [compound 18],30 nM,–
C[C@@H]1CCC[C@H](C)N1CCc1c[nH]c2ccccc12 [compound 19],800 nM,–

Structure (SMILES),Ki (5-HT1 receptor),Ki (5-HT2 receptor)
COc1ccc2[nH]cc(CCN3[C@H](C)CCC[C@@H]3C)c2c1 [compound 21],70 nM,–
C[C@@H]1CCC[C@H](C)N1CCc1c[nH]c2ccc(Cl)cc12 [compound 23],60 nM,–
C[C@@H]1CCC[C@H](C)N1CCc1c[nH]c2ccc(F)cc12 [compound 24],170 nM,–
CC1CCCCN1CCc1c[nH]c2ccccc12 (centres unmarked) [compound 25],170 nM,–
CC1CC(C)N(CCc2c[nH]c3ccccc23)C(C)C1 (centres unmarked) [compound 26],920 nM,–
Cc1ccc2[nH]cc(CCN3[C@H](C)CCC[C@@H]3C)c2c1 [compound 27],40 nM,–
C[C@@H]1CCC[C@H](C)N1CCc1c[nH]c2ccc(C#N)cc12 [compound 28],240 nM,–
C[C@@H]1CCC[C@H](C)N1CCc1cn(C(=O)OC(C)(C)C)c2ccccc12 [compound 30],1800 nM,–
Cc1ccc(S(=O)(=O)n2cc(CCN3[C@H](C)CCC[C@@H]3C)c3cc(Br)ccc32)cc1 [compound 31],3200 nM,–
C[C@@H]1CCC[C@H](C)N1CCc1c[nH]c2ccc(-n3cc(CCN4[C@H](C)CCC[C@@H]4C)c4cc(Br)ccc43)cc12 [compound 32],680 nM,–
C[C@@H]1CCC[C@H](C)N1CCc1cn(C)c2ccc(Br)cc12 [compound 34],1100 nM,–
C[C@@H]1CCC[C@H](C)N1CCc1c[nH]c2ccc(CN)cc12 [compound 35],500 nM,–
C[C@@H]1CCC[C@H](C)N1CCc1cn(C(=O)c2ccccc2)c2ccc(Br)cc12 [compound 36],1000 nM,–
C[C@@H]1CCC[C@H](C)N1CCc1c[nH]c2ccc(C(N)=O)cc12 [compound 37],7 nM,–
CC1CC(C)N(CCc2c[nH]c3ccc(Cl)cc23)C(C)C1 (centres unmarked) [compound 38],660 nM,–
CC1(C)CCCC(C)(C)N1CCc1c[nH]c2ccccc12 [compound 39],> 10000 nM,–
